From ChEMBL document CHEMBL1201862, “PubChem BioAssay data set” (2004)
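Briefly, cells in 96-well plates were exposed to five compound concentrations for 48 h, and endpoints were estimated by linear interpolation. Here, GI50 denotes the concentration required for 50% inhibition of growth.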 Activity calls are given as the source filed them. Rule as the data show it: active = GI50 up to about 1.1 µM and inactive = higher.

Key:
Test in all cases: DTP human tumour cell line panel, 48 h
A549 = tested on: A549
BT-549 = tested on: BT-549
CAKI-1 = tested on: CAKI-1
HCT-116 = tested on: HCT-116
HCT-15 = tested on: HCT-15
HOP-62 = tested on: HOP-62
IGROV-1 = tested on: IGROV-1
KM12 = tested on: KM12
LOX IMVI = tested on: LOX IMVI
MOLT-4 = tested on: MOLT-4
Malme-3M = tested on: Malme-3M
NCI-H226 = tested on: NCI-H226
RXF 393 = tested on: RXF 393
SF-295 = tested on: SF-295
SK-MEL-2 = tested on: SK-MEL-2
SK-MEL-5 = tested on: SK-MEL-5
SK-OV-3 = tested on: SK-OV-3
SNB-19 = tested on: SNB-19
SW-620 = tested on: SW-620
TK-10 = tested on: TK-10

| Structure (SMILES) | GI50 (A549) | GI50 (BT-549) | GI50 (CAKI-1) | GI50 (HCT-116) | GI50 (HCT-15) [µM] | GI50 (HOP-62) | GI50 (IGROV-1) | GI50 (KM12) | GI50 (LOX IMVI) | GI50 (MOLT-4) | GI50 (Malme-3M) | GI50 (NCI-H226) | GI50 (RXF 393) | GI50 (SF-295) | GI50 (SK-MEL-2) | GI50 (SK-MEL-5) | GI50 (SK-OV-3) | GI50 (SNB-19) | GI50 (SW-620) | GI50 (TK-10) |
| --- | --- | --- | --- | --- | --- | --- | --- | --- | --- | --- | --- | --- | --- | --- | --- | --- | --- | --- | --- | --- |
| CC1(C)C2CCC1(CC(=O)O)C(Cl)C2 (centres undefined) | > 100 µM (inactive) | > 100 µM (inactive) | > 100 µM (inactive) | > 100 µM (inactive) | > 100 | > 100 µM (inactive) | > 100 µM (inactive) | > 100 µM (inactive) | > 100 µM (inactive) | > 100 µM (inactive) | > 100 µM (inactive) | > 100 µM (inactive) | > 100 µM (inactive) | > 100 µM (inactive) | > 100 µM (inactive) | > 100 µM (inactive) | > 100 µM (inactive) | > 100 µM (inactive) | > 100 µM (inactive) | > 100 µM (inactive) |
| CCOP(=O)(OCC)/C(C#N)=C/c1cccn1CC(C)C | > 100 µM (inactive) | > 100 µM (inactive) | > 100 µM (inactive) | > 100 µM (inactive) | > 100 | > 100 µM (inactive) | > 100 µM (inactive) | 89.9 µM (inactive) | > 100 µM (inactive) | 52.5 µM (inactive) | > 100 µM (inactive) | 35.7 µM (inactive) | > 100 µM (inactive) | > 100 µM (inactive) | > 100 µM (inactive) | 40.9 µM (inactive) | > 100 µM (inactive) | > 100 µM (inactive) | > 100 µM (inactive) | > 100 µM (inactive) |
| CCOC(=O)C(NC(=O)c1ccccc1)(c1ccc(S(=O)(=O)Nc2onc(C)c2C)cc1)C(F)(F)F (centres undefined) | > 100 µM (inactive) | > 100 µM (inactive) | > 100 µM (inactive) | > 100 µM (inactive) | > 100 | > 100 µM (inactive) | > 100 µM (inactive) | > 100 µM (inactive) | > 100 µM (inactive) | > 100 µM (inactive) | > 100 µM (inactive) | > 100 µM (inactive) | > 100 µM (inactive) | > 100 µM (inactive) | > 100 µM (inactive) | > 100 µM (inactive) | 0.495 µM (active) | > 100 µM (inactive) | > 100 µM (inactive) | > 100 µM (inactive) |
| Clc1ccc(CSc2ncnc3c2ncn3C2CCCCO2)cc1 (centres undefined) | 25.2 µM (inactive) | 24.3 µM (inactive) | 26.3 µM (inactive) | 20.8 µM (inactive) | 26.5 | 18.7 µM (inactive) | 30.3 µM (inactive) | 19.1 µM (inactive) | 18.5 µM (inactive) | – | 17.9 µM (inactive) | 28.4 µM (inactive) | 25.1 µM (inactive) | 15.7 µM (inactive) | 16.4 µM (inactive) | 10.9 µM (inactive) | 21.4 µM (inactive) | 34.8 µM (inactive) | 29.9 µM (inactive) | 21.8 µM (inactive) |
| CCC/N=C/c1cc(Cc2ccc(O)c(/C=N/CCC)c2)ccc1O | 17 µM (inactive) | 10.7 µM (inactive) | 21.1 µM (inactive) | 2.37 µM (inactive) | 3.33 | 14.1 µM (inactive) | 4.09 µM (inactive) | 3.95 µM (inactive) | 3.17 µM (inactive) | 1.54 µM (inactive) | 19.5 µM (inactive) | 8.43 µM (inactive) | 16.3 µM (inactive) | 12.9 µM (inactive) | 3 µM (inactive) | 5.51 µM (inactive) | 18.5 µM (inactive) | 2.7 µM (inactive) | 3.55 µM (inactive) | 11.1 µM (inactive) |
| C1=N\CCOCC/N=C\c2ccc(cc2)OCc2cccc(n2)COc2ccc/1cc2 | > 100 µM (inactive) | > 100 µM (inactive) | – | > 100 µM (inactive) | > 100 | > 100 µM (inactive) | > 100 µM (inactive) | > 100 µM (inactive) | – | > 100 µM (inactive) | > 100 µM (inactive) | 57.8 µM (inactive) | > 100 µM (inactive) | 98.2 µM (inactive) | > 100 µM (inactive) | – | > 100 µM (inactive) | > 100 µM (inactive) | > 100 µM (inactive) | > 100 µM (inactive) |
| COc1ccc(OC)c(/C=N/N=C2\C(=O)Nc3c(Cl)cc(Cl)cc32)c1 | > 100 µM (inactive) | 26.1 µM (inactive) | 71.3 µM (inactive) | 52.4 µM (inactive) | 36.6 | 19 µM (inactive) | 34.3 µM (inactive) | 35.4 µM (inactive) | 47.6 µM (inactive) | 23.8 µM (inactive) | > 100 µM (inactive) | 82.6 µM (inactive) | 66.2 µM (inactive) | 32.1 µM (inactive) | 21.2 µM (inactive) | 56.1 µM (inactive) | 72.6 µM (inactive) | > 100 µM (inactive) | 43.4 µM (inactive) | > 100 µM (inactive) |
| Cc1[nH]c(=O)c2oc3cc4ccccc4cc3c2c1C(=O)O | > 10 µM (inactive) | > 10 µM (inactive) | – | – | > 10 | – | > 10 µM (inactive) | > 10 µM (inactive) | > 10 µM (inactive) | – | > 10 µM (inactive) | > 10 µM (inactive) | > 10 µM (inactive) | 8.99 µM (inactive) | > 10 µM (inactive) | – | > 10 µM (inactive) | > 10 µM (inactive) | > 10 µM (inactive) | > 10 µM (inactive) |
| [N-]=[N+]=CC(=O)OC1CCc2ccccc21 (centres undefined) | – | > 100 µM (inactive) | 26 µM (inactive) | > 100 µM (inactive) | > 100 | 55.2 µM (inactive) | > 100 µM (inactive) | – | > 100 µM (inactive) | – | > 100 µM (inactive) | > 100 µM (inactive) | 60.3 µM (inactive) | 40.8 µM (inactive) | > 100 µM (inactive) | 85.1 µM (inactive) | > 100 µM (inactive) | > 100 µM (inactive) | > 100 µM (inactive) | 59.6 µM (inactive) |
| O=CC(O)C(O)C(O)C(O)C(=O)NCCCCCCCCCCCCNC(=O)C(O)C(O)C(O)C(O)C=O (centres undefined) | > 100 µM (inactive) | > 100 µM (inactive) | – | > 100 µM (inactive) | > 100 | > 100 µM (inactive) | > 100 µM (inactive) | > 100 µM (inactive) | > 100 µM (inactive) | > 100 µM (inactive) | > 100 µM (inactive) | > 100 µM (inactive) | > 100 µM (inactive) | > 100 µM (inactive) | > 100 µM (inactive) | > 100 µM (inactive) | > 100 µM (inactive) | > 100 µM (inactive) | > 100 µM (inactive) | > 100 µM (inactive) |
| COc1cccc(Nc2nc(C)c([N+](=O)[O-])c(Nc3cccc(OC)c3)n2)c1 | 12.1 µM (inactive) | 1.85 µM (inactive) | – | 26.6 µM (inactive) | 18.4 | 12.1 µM (inactive) | 14.6 µM (inactive) | – | 16.1 µM (inactive) | 4.37 µM (inactive) | 53.1 µM (inactive) | 40.8 µM (inactive) | 4.86 µM (inactive) | < 0.01 µM (active) | 15.9 µM (inactive) | 11.4 µM (inactive) | > 100 µM (inactive) | 89.1 µM (inactive) | > 100 µM (inactive) | 16.8 µM (inactive) |
| O=[N+]([O-])C(=C(Nc1cccc2cccnc12)Nc1cccc2cccnc12)C(Cl)=C(Cl)Cl | > 79.8 µM (inactive) | 30.1 µM (inactive) | > 49.9 µM (inactive) | 45 µM (inactive) | 31.2 | > 100 µM (inactive) | 3.98 µM (inactive) | 45.2 µM (inactive) | 50.4 µM (inactive) | 74.1 µM (inactive) | > 92.3 µM (inactive) | 63.1 µM (inactive) | 30 µM (inactive) | 43 µM (inactive) | – | 4.97 µM (inactive) | > 100 µM (inactive) | > 96.2 µM (inactive) | 66.7 µM (inactive) | > 100 µM (inactive) |
| COc1cccc2c1OC(c1ccc(Cl)cc1)C([N+](=O)[O-])=C2 (centres undefined) | 9.82 µM (inactive) | 1.24 µM (inactive) | 3.48 µM (inactive) | 1.35 µM (inactive) | 1.81 | 2.1 µM (inactive) | 2.25 µM (inactive) | 2.08 µM (inactive) | 1.2 µM (inactive) | 1.49 µM (inactive) | 1.87 µM (inactive) | – | 1.64 µM (inactive) | 3.1 µM (inactive) | – | 1.53 µM (inactive) | 3.57 µM (inactive) | 4.28 µM (inactive) | – | 4.95 µM (inactive) |
| Cc1c(C(=O)OCc2ccccc2)[n+]([O-])c2cc(F)c(F)cc2[n+]1[O-] | 3.2 µM (inactive) | 1.83 µM (inactive) | 2.15 µM (inactive) | 1.63 µM (inactive) | 0.583 | 4.67 µM (inactive) | 1.73 µM (inactive) | 5.68 µM (inactive) | 0.421 µM (active) | 1.96 µM (inactive) | 1.99 µM (inactive) | 2.7 µM (inactive) | 2.38 µM (inactive) | 2.16 µM (inactive) | 1.67 µM (inactive) | 0.698 µM (active) | – | 2.08 µM (inactive) | 0.64 µM (active) | 16.3 µM (inactive) |
| CC(C)(C)O/C=C1/C(=O)OC2C[C@@H](O[Si](C)(C)C(C)(C)C)CC12 (some centres undefined) | 58.9 µM (inactive) | 56.5 µM (inactive) | > 100 µM (inactive) | 37.1 µM (inactive) | 49.3 | > 100 µM (inactive) | 72.6 µM (inactive) | 65.2 µM (inactive) | 36.6 µM (inactive) | – | 98.9 µM (inactive) | 92.7 µM (inactive) | 0.759 µM (active) | 61.5 µM (inactive) | > 100 µM (inactive) | 60.3 µM (inactive) | > 100 µM (inactive) | 94.2 µM (inactive) | 54.3 µM (inactive) | > 100 µM (inactive) |
